Measurements published in patent publication US11352421B2, “Treatment for adverse immune reaction to metal implant debris” (RUSH UNIVERSITY MEDICAL CENTER, priority 2018, dated 2022).
*: point of attachment. Cbz = O=C(OCc1ccccc1)*; CH2F = FC*

Columns and labels:
[1] = tested on: human peripheral blood mononuclear cells; assay: Metal-LTT of human lymphocytes (PBMCs): proliferation by 3H-thymidine incorporation with inflammasome or IL-17A inhibitors; format: cell-based; conditions: for lymphocyte proliferation in response to Ni in the presence of inhibitor / lymphocyte proliferation to Ni combined with inhibitor compared to media control: metal-reactive individuals' lymphocytes, 6 days; for lymphocyte proliferation in response to Ni in the presence of inhibitor: compared with Ni challenge without inhibitor; for lymphocyte proliferation to Ni combined with inhibitor compared to media control: versus media challenge; for lymphocyte proliferation, mean response to Ni: Ni alone
Procedure: De-identified human peripheral blood mononuclear cells were isolated from 30 mL of peripheral blood using density gradient separation (Ficoll-isopaque, Pharmacia, Piscataway, N.J.). Ficoll gradient separated mononuclear cells are generally comprised of 85-95% lymphocytes with 5-13% monocytes and <0.1% dendritic cells with limited contamination (i.e., <5% erythrocytes and <3% granulocytes). Collected PBMCs (white buffy coat) were washed in sterile 1×PBS and resuspended in RPMI-1640 medium with 10% autologous serum and cultured with either no metal (plain media) as a negative control, PHA as a positive control, or with soluble nickel (NiCl2) or cobalt (CoCl2) at 37° C. and […] for 6 days. At day 5 of cell culture, ^3H-thymidine was added. At day 6, T-cell proliferation was assessed via ^3H-thymidine incorporation that was determined using a beta scintillation counter.
(§1) Isolated human PBMCs were co-incubated in vitro with either MCC950, a NLRP3 inflammasome inhibitor (InvivoGen), Caspase-1 inhibitor (Caspase-1/ICE inhibitor Z-WEHD-FMK) or recombinant human IL-1Ra (R&D Systems. Inc., Minneapolis, Minn.) for metal-LTT assay or cytokine analysis according to manufacturer's protocol and working concentration. Caicedo et al., J. Biomed. Mater. Res. A 93(4):1312-1321 (2010).
(§2) Isolated human PBMCs were co-incubated in vitro with IL-17A monoclonal antibody (eBio64CAP17; ThermoFisher Scientific) for neutralization of IL-17A bioactivity for metal-lymphocyte transformation test assay or cytokine analysis according to the manufacturer's protocol and concentration.

IL-17A/F [2] = assay: Sandwich ELISA for human IL-17A/F in supernatants of metal-challenged PBMCs; format: cell-based; conditions: metal-reactive individuals' lymphocytes; supernatants harvested on day 6
Procedure: as §1, §2
(§3) Sandwich ELISAs for mouse IL-17A/F and IFN-γ (R&D Systems Inc., Minneapolis, Minn.) were used to detect cytokine production in both non-sensitized and metal-sensitized female mouse spleens and isolated CD4+ T-cells that were harvested 48 h post paw re-challenge to metal allergen (day 14). Supernatants from control and metal-challenged murine cells were collected after 4 days. […] All samples for ELISA were performed in triplicate in 96 well plates and were stored at −80° C. until analysis, following manufacturer's protocol.

IFN-γ [3] = assay: Sandwich ELISA for human IFN-γ in supernatants of metal-challenged PBMCs; format: cell-based; conditions: metal-reactive individuals' lymphocytes; supernatants harvested on day 6
Procedure: as §1, §2, §3

[4] = tested on: metal-sensitized C57BL/6 mice; assay: In vivo delayed type hypersensitivity (DTH) to orthopedic implant metal(s): paw inflammation by digital caliber; conditions: day 14, no treatment, p<0.0001 vs vehicle group
Procedure: DTH responses comprise two phases: (1) sensitization and (2) effector phase. […] Ashrin et al., J. Immunol. 192(9):4025-4031 (2014); Sato et al., Clin. Exp. Allergy 37(5):743-751 (2007). […] (2) Effector phase to implant metal(s): Re-exposure to the metal allergen leads to DTH reaction during the effector phase. Therefore, on day 12, a 50 μL mixture of either sterile 1×PBS (control group) or NiCl2 (metal-sensitized group) with an equivalent volume of CFA was injected subcutaneously on top of the right paw. DTH was determined 48 h post re-exposure to metal allergen (day 14) by measuring changes in paw inflammation using a digital caliber (blinded assessment) and the induced difference was recorded. Each group consisted of 3-5 mice and experiments were performed at least three independent times.
Anti-mouse IL-1R1: A set of metal-sensitized C57BL/6 female mice received local paw administration on day 12 with 200 μg of anti-mouse IL-1R1 (for local in vivo blocking of IL-1R during the effector phase of metal-DTH responses) (clone JAMA-147; BioLegend, San Diego, Calif.) in concert with NiCl2 and CFA. Rogers et al., Proc. Natl. Acad. Sci. USA 89(3):1011-1015 (1992); Rogers et al., J. Immunol. 153(5):2093-2101 (1994). […]

IL-17A/F [5] = assay: Sandwich ELISA for mouse IL-17A/F in supernatants of metal-challenged CD4+ T cells; format: cell-based; conditions: CD4+ T cells from metal-sensitized Caspase-1−/− mice
Procedure: (§4) In addition to determination of paw swelling after recall with NiCl2, proliferation in vitro of lymphocytes was measured. Spleens were obtained aseptically 48 h after challenge and splenic effector CD4+ T cells were isolated using negative selection kit following manufacturer's protocol (EasySep Mouse CD4+ T cell isolation kit; 2.5×10^5 cells/per well in 96 well flat bottom plates). Splenic CD4+ T cells were co-incubated with syngeneic mitomycin-C treated naïve splenic (2.5×10^5 cells/per well) antigen-presenting cells (APCs) with or without 0.0001 mM or 0.001 mM of soluble metal ions NiCl2 or CoCl2, and 0.01 mg/mL phytohemagglutinin (PHA) as a positive control, in RPMI 1640 media containing 10% fetal bovine serum (FBS; Hyclone Laboratories, Inc.) at 37° C. and […] for 4 days. Syngeneic naïve spleen APCs were incubated at 5×10^6 cells/mL with 25 μg/mL of mitomycin-C for 30 minutes to inactivate proliferation. At day 3 of cell culture, ^3H-thymidine was added. At day 4, T-cell proliferation was assessed via ^3H-thymidine incorporation that was determined using a beta scintillation counter.
(§5) Sandwich ELISAs for mouse IL-17A/F and IFN-γ (R&D Systems Inc., Minneapolis, Minn.) were used to detect cytokine production in both non-sensitized and metal-sensitized female mouse spleens and isolated CD4+ T-cells that were harvested 48 h post paw re-challenge to metal allergen (day 14). […]

IFN-γ [6] = assay: Sandwich ELISA for mouse IFN-γ in supernatants of metal-challenged CD4+ T cells; format: cell-based; conditions: CD4+ T cells from metal-sensitized Caspase-1−/− mice
Procedure: as §4, §5

Molecule	lymphocyte proliferation in response to Ni in the presence of inhibitor [1]	lymphocyte proliferation to Ni combined with inhibitor compared to media control [1]	IL-17A/F production to metal challenge in the presence of inhibitor (IL-17A/F [2])	IFN-γ production to metal challenge in the presence of inhibitor (IFN-γ [3])	mean paw inflammation upon challenge with Ni [4]	IL-17A/F mean secretion in response to Ni (IL-17A/F [5])	IFN-γ mean secretion in response to Ni (IFN-γ [6])	lymphocyte proliferation, mean response to Ni ([1]; other groups of individuals (FIGS. 9A, 9B, 10A))	lymphocyte proliferation, mean response to Ni ([1]; subset of individuals tested with anti-IL-17A (n=11))	relative effectiveness in mitigating lymphocyte metal reactivity (comparison among inhibitors) ([1]; comparison of MCC950, Caspase-1 inhibitor, IL-1Ra, anti-IL-17A)
Cbz-WEHD-CH2F [Caspase-1 inhibitor, reference compound]	significantly reduced lymphocyte reactivity	significant increases in cell proliferation	significantly suppressed	significantly suppressed both IL-17 and IFN-γ production						
[Cl][Ni][Cl] [Ni, Nickel (II) chloride]					6.195 mm	131.5 pg/mL	956.6 pg/mL	approximately 4,000 cpm	10,600 cpm	
CC(C)(O)c1coc(S(=O)(=O)NC(=O)Nc2c3c(cc4c2CCC4)CCC3)c1 [MCC950, reference compound]	only a weak proliferative response	significant increases in cell proliferation	significantly suppressed	not affected						
IL-1Ra: recombinant human IL-1Ra (R&D Systems), IL-1 receptor antagonist; b178 equates IL-1Ra with ANAKINRA	significantly reduced lymphocyte proliferative responses	non-significantly different compared to media challenge	significantly suppressed							most effective inflammasome based inhibitor
